Literature values in patent US20080255186A1, “Pyrazolo[3,4-B]Pyridine Compound, and Its Use as a Pde4 Inhibitor” (priority 2005, published 2008).

Legend:
[1] = test system: atopic dermatitis patients; conditions: 0.5% ointment, twice daily topical application; cited from earlier work
[2] = test system: COPD patients; conditions: cited from earlier work
[3] = test system: atopic dermatitis patients; conditions: 0.15% cream vs vehicle and hydrocortisone 17-butyrate (0.1%) cream; cited from earlier work
[4] = test system: humans with histories of allergic rhinitis; conditions: orally 500 ug once daily for 9 days, compared to placebo; cited from earlier work

Q: With `COc1ccc(C2CNC(=O)NC2)cc1O[C@H]1C[C@@H]2CC[C@H]1C2` [CP80,633] as the compound, how does the “Effect on inflammatory parameters in atopic dermatitis patients” value [1] read?
A: reductions of inflammatory parameters

Q: For `COc1ccc([C@]2(C#N)CC[C@@H](C(=O)O)CC2)cc1OC1CCCC1` [cilomilast], which “Effect on forced expiratory volume (FEV1) in COPD patients” value ([2]; cilomilast: 15 mg orally twice daily) is on record?
A: appears to improve forced expiratory volume

Q: And the “Antiinflammatory effects in COPD patients” value ([2]; human, in vivo)?
A: appears to have antiinflammatory effects in COPD patients

Q: Which “Efficacy in treatment of atopic dermatitis patients” value [3] does the source give for `Nc1nc2c([nH]1)c(=O)n(CC1CC1)c(=O)n2CC1CC1` [cipamfylline] here?
A: significantly more effective than vehicle, but significantly less effective than hydrocortisone 17-butyrate (0.1%) cream

Q: Which “Effect on rhinal airflow” value [4] does the source give for `O=C(Nc1c(Cl)cncc1Cl)c1ccc(OC(F)F)c(OCC2CC2)c1` [roflumilast] here?
A: effective in improving rhinal airflow
